Test system: K98450-129-R-PDC multicell spheroids, viability
Test: Anticancer human tumor K98450-129-R-PDC patient-derived colon adenocarcinoma cell line growth inhibition [PI3K]
Conditions: for viability, T/C: stronger effect = lower value
Method in brief: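 Spheroid viability read-out. Co-cultures contained the tumor line plus HUVEC and human MSCs. Each agent was paired with a PI3K inhibitor (inavolisib, alpelisib, duvelisib, copanlisib) across half-log dilutions starting at clinical Cmax, or at 10 microM when Cmax was unknown.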

[1] = curve of first compound, second compound 0.00316 µM
[2] = curve of first compound, second compound 0.01 µM
[3] = curve of first compound, second compound 0.0316 µM
[4] = curve of first compound, second compound 0.1 µM
[5] = curve of first compound, second compound 0.316 µM
[6] = curve of first compound, second compound 1 µM
[7] = second compound 0.00316 µM, first compound 0.0316 µM
[8] = second compound 0.00316 µM, first compound 0.1 µM
[9] = second compound 0.00316 µM, first compound 0.316 µM
[10] = second compound 0.00316 µM, first compound 1 µM
[11] = second compound 0.01 µM, first compound 0.0316 µM
[12] = second compound 0.01 µM, first compound 0.1 µM
[13] = second compound 0.01 µM, first compound 0.316 µM
[14] = second compound 0.01 µM, first compound 1 µM
[15] = second compound 0.0316 µM, first compound 0.0316 µM
[16] = second compound 0.0316 µM, first compound 0.1 µM
[17] = second compound 0.0316 µM, first compound 0.316 µM
[18] = second compound 0.0316 µM, first compound 1 µM
[19] = second compound 0.1 µM, first compound 0.0316 µM
[20] = second compound 0.1 µM, first compound 0.1 µM
[21] = second compound 0.1 µM, first compound 0.316 µM
[22] = second compound 0.1 µM, first compound 1 µM
[23] = second compound 0.316 µM, first compound 0.0316 µM
[24] = second compound 0.316 µM, first compound 0.1 µM
[25] = second compound 0.316 µM, first compound 0.316 µM
[26] = second compound 0.316 µM, first compound 1 µM
[27] = second compound 1 µM, first compound 0.0316 µM
[28] = second compound 1 µM, first compound 0.1 µM
[29] = second compound 1 µM, first compound 0.316 µM
[30] = second compound 1 µM, first compound 1 µM
[31] = second compound 0.0316 µM, first compound 3.16 µM
[32] = second compound 0.0316 µM, first compound 10 µM
[33] = second compound 0.1 µM, first compound 3.16 µM
[34] = second compound 0.1 µM, first compound 10 µM
[35] = second compound 0.316 µM, first compound 3.16 µM
[36] = second compound 0.316 µM, first compound 10 µM
[37] = second compound 1 µM, first compound 3.16 µM
[38] = second compound 1 µM, first compound 10 µM
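Also: spheroids exposed to agents for seven days before read-out.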

## CCN1CCN(Cc2ccc(Nc3ncc(F)c(-c4cc(F)c5nc(C)n(C(C)C)c5c4)n3)nc2)CC1 + CC(Nc1ccc2c(c1)OCCn1cc(N3C(=O)OCC3C(F)F)nc1-2)C(N)=O
[1]
  IC50: > 1000 nM
[2]
  IC50: > 1000 nM
[3]
  IC50: > 1000 nM
[4]
  IC50: > 1000 nM
[5]
  IC50: > 1000 nM
[6]
  IC50: > 1000 nM
Second compound 0.00316 µM, first compound 0.00316 µM
  viability, T/C: 105%
Second compound 0.00316 µM, first compound 0.01 µM
  viability, T/C: 92.2%
[7]
  viability, T/C: 104%
[8]
  viability, T/C: 90.3%
[9]
  viability, T/C: 81%
[10]
  viability, T/C: 82.9%
Second compound 0.01 µM, first compound 0.00316 µM
  viability, T/C: 117%
Second compound 0.01 µM, first compound 0.01 µM
  viability, T/C: 90.5%
[11]
  viability, T/C: 98.7%
[12]
  viability, T/C: 92.3%
[13]
  viability, T/C: 84.9%
[14]
  viability, T/C: 86.9%
Second compound 0.0316 µM, first compound 0.00316 µM
  viability, T/C: 109%
Second compound 0.0316 µM, first compound 0.01 µM
  viability, T/C: 100%
[15]
  viability, T/C: 93.8%
[16]
  viability, T/C: 89.9%
[17]
  viability, T/C: 94.5%
[18]
  viability, T/C: 92.6%
Second compound 0.1 µM, first compound 0.00316 µM
  viability, T/C: 92.9%
Second compound 0.1 µM, first compound 0.01 µM
  viability, T/C: 96.8%
[19]
  viability, T/C: 97.4%
[20]
  viability, T/C: 85.5%
[21]
  viability, T/C: 83.7%
[22]
  viability, T/C: 82.8%
Second compound 0.316 µM, first compound 0.00316 µM
  viability, T/C: 90.6%
Second compound 0.316 µM, first compound 0.01 µM
  viability, T/C: 98.3%
[23]
  viability, T/C: 95.7%
[24]
  viability, T/C: 86.5%
[25]
  viability, T/C: 85.4%
[26]
  viability, T/C: 79.3%
Second compound 1 µM, first compound 0.00316 µM
  viability, T/C: 90.5%
Second compound 1 µM, first compound 0.01 µM
  viability, T/C: 88%
[27]
  viability, T/C: 86.8%
[28]
  viability, T/C: 82.3%
[29]
  viability, T/C: 83.9%
[30]
  viability, T/C: 81.6%

## Cn1cnc2c(F)c(Nc3ccc(Br)cc3Cl)c(C(=O)NOCCO)cc21
Compound 0.00949 µM
  viability, T/C: 92.8% [middle of 4 runs]
Compound 0.03 µM
  viability, T/C: 89.9% [middle of 4 runs]
Compound 0.0949 µM
  viability, T/C: 93.2% [middle of 4 runs]
Compound 0.3 µM
  viability, T/C: 83% [middle of 4 runs]
Compound 0.949 µM
  viability, T/C: 52.5% [middle of 4 runs]
Compound 3 µM
  viability, T/C: 22% [middle of 4 runs]
Curve of compound
  IC50: 1.07 µM [middle of 4 runs]

## C=CC(=O)N1CCN(c2nc(=O)n(-c3c(C)ccnc3C(C)C)c3nc(-c4c(O)cccc4F)c(F)cc23)C(C)C1 (stereo not drawn) + COc1c(OCCCN2CCOCC2)ccc2c3n(c(=NC(=O)c4cnc(N)nc4)nc12)CCN3
[1]
  IC50: 2760 nM
[2]
  IC50: 5000 nM
[3]
  IC50: 2950 nM
[4]
  IC50: 692 nM
[5]
  IC50: 554 nM
[6]
  IC50: 166 nM
[7]
  viability, T/C: 98.1%
[8]
  viability, T/C: 95.5%
[9]
  viability, T/C: 97.4%
[10]
  viability, T/C: 82.1%
Second compound 0.00316 µM, first compound 3.16 µM
  viability, T/C: 45.7%
Second compound 0.00316 µM, first compound 10 µM
  viability, T/C: 44.7%
[11]
  viability, T/C: 103%
[12]
  viability, T/C: 82.8%
[13]
  viability, T/C: 89.3%
[14]
  viability, T/C: 63%
Second compound 0.01 µM, first compound 3.16 µM
  viability, T/C: 57.1%
Second compound 0.01 µM, first compound 10 µM
  viability, T/C: 41.4%
[15]
  viability, T/C: 116%
[16]
  viability, T/C: 99.6%
[17]
  viability, T/C: 73.8%
[18]
  viability, T/C: 76.2%
[31]
  viability, T/C: 48.6%
[32]
  viability, T/C: 29.4%
[19]
  viability, T/C: 71.9%
[20]
  viability, T/C: 91.2%
[21]
  viability, T/C: 61.1%
[22]
  viability, T/C: 44.9%
[33]
  viability, T/C: 41.9%
[34]
  viability, T/C: 28.3%
[23]
  viability, T/C: 67.7%
[24]
  viability, T/C: 59.5%
[25]
  viability, T/C: 66%
[26]
  viability, T/C: 34.8%
[35]
  viability, T/C: 19.5%
[36]
  viability, T/C: 16.3%
[27]
  viability, T/C: 50.8%
[28]
  viability, T/C: 61.1%
[29]
  viability, T/C: 42.2%
[30]
  viability, T/C: 22.6%
[37]
  viability, T/C: 15.1%
[38]
  viability, T/C: 14.2%

## C#Cc1c(F)ccc2cc(O)cc(-c3ncc4c(N5CC6CCC(C5)N6)nc(OCC56CCCN5CC(F)C6)nc4c3F)c12 (stereo not drawn) + CC(Nc1ncnc2nc[nH]c12)c1cc2cccc(Cl)c2c(=O)n1-c1ccccc1
[3]
  IC50: > 10000 nM
[4]
  IC50: > 10000 nM
[5]
  IC50: > 10000 nM
[6]
  IC50: > 10000 nM
Curve of first compound, second compound 3.16 µM
  IC50: > 10000 nM
Curve of first compound, second compound 10 µM
  IC50: > 10000 nM
[15]
  viability, T/C: 120%
[16]
  viability, T/C: 101%
[17]
  viability, T/C: 99.1%
[18]
  viability, T/C: 91.7%
[31]
  viability, T/C: 90.9%
[32]
  viability, T/C: 92.9%
[19]
  viability, T/C: 116%
[20]
  viability, T/C: 98.7%
[21]
  viability, T/C: 96.4%
[22]
  viability, T/C: 90.1%
[33]
  viability, T/C: 98.2%
[34]
  viability, T/C: 90.6%
[23]
  viability, T/C: 110%
[24]
  viability, T/C: 106%
[25]
  viability, T/C: 91.1%
[26]
  viability, T/C: 100%
[35]
  viability, T/C: 101%
[36]
  viability, T/C: 96.2%
[27]
  viability, T/C: 98.9%
[28]
  viability, T/C: 91.6%
[29]
  viability, T/C: 104%
[30]
  viability, T/C: 84.1%
[37]
  viability, T/C: 115%
[38]
  viability, T/C: 77.5%
Second compound 3.16 µM, first compound 0.0316 µM
  viability, T/C: 89.4%
Second compound 3.16 µM, first compound 0.1 µM
  viability, T/C: 89.9%
Second compound 3.16 µM, first compound 0.316 µM
  viability, T/C: 93.5%
Second compound 3.16 µM, first compound 1 µM
  viability, T/C: 85.1%
Second compound 3.16 µM, first compound 3.16 µM
  viability, T/C: 92%
Second compound 3.16 µM, first compound 10 µM
  viability, T/C: 87.4%
Second compound 10 µM, first compound 0.0316 µM
  viability, T/C: 87.5%
Second compound 10 µM, first compound 0.1 µM
  viability, T/C: 98.2%
Second compound 10 µM, first compound 0.316 µM
  viability, T/C: 88.2%
Second compound 10 µM, first compound 1 µM
  viability, T/C: 91.3%
Second compound 10 µM, first compound 3.16 µM
  viability, T/C: 99.9%
Second compound 10 µM, first compound 10 µM
  viability, T/C: 75.1%

Reference: PubChem BioAssay AID1963961 (Molecular Pharmacology Branch, DTP, NCI, 2024)
